# What was measured:
# Col1A1 mRNA = assay: Real time RT PCR Col1A1 mRNA, TGF-b1 stimulated skin fibroblasts; type: cell-based; settings: human skin fibroblasts
# Description: Additional studies using human skin fibroblasts were performed employing a type I collagen specific ELISA Chondrex, and real time RT PCR to quantitate type I collagen protein and Col1A1 mRNA expression in culture of human fibroblast stimulated by TGF-b1 in the presence and absence of 17,20S(OH)2pD3 and/or 20(OH)D3. These studies confirmed that Type I collagen protein production that was induced by TGF-b1 and that Col1A1 mRNA that was induced by TGF-b1 were suppressed by these analogues (FIGS. 44A-44B).
# HaCaT keratinocytes [1] = assay: Colony forming (clonogenicity) assay in HaCaT keratinocytes; type: cell-based, human; settings: 10^−8 M, 10 days
# Description: HaCaT and human adult epidermal keratinocytes were cultured and DNA synthesis experiments were performed as described previously (26). Cells were plated in 6-well plates at a density of 20 cells/cm^2 in DMEM (Cellgro, Herndon Va.) containing 5% charcoal-treated fetal bovine serum (Hyclone, Logan, Utah), 1% antibiotic solution (PSA, Sigma, St. Louis, […].) and vehicle or secosteroids. Cells were incubated in 37° C. for 10 days with media being changed every 72 hr. Cells were fixed with 4% paraformaldehyde in PBS overnight, stained with 0.5% crystal violet in PBS for 15 min, rinsed and air-dried. The number and size of the colonies were measured using an ARTEK counter 880 (Dynex Technologies Inc., Chantilly, Va.). Colony forming units were calculated as follows: number of colonies (size>0.5 mm) was divided by the number of cells plated and multiplied by 100.
# involucrin [2] = assay: Real-time RT PCR involucrin mRNA, normal human epidermal keratinocytes; type: cell-based; settings: 10^−8 M, 6 h
# Description: (§1) RNA was extracted using an Absolutely RNA RT-PCR Miniprep Kit (Stratagene, La Jolla, Calif.). Real time PCR and reverse transcription products were purchased from Applied Biosystems, Foster City, Calif. Reverse transcription was performed using Taqman® Reverse Transcription Reagents. The following PCR products were used: cytokeratin 14: Hs00265033_m1, involucrin: Hs00846307_s1, CYP27A1: Hs00168003_ml, CYP27B1: Hs00168017_ml, 18SrRNA: Hs99999901_s1. The reaction was performed with Taqman® Universal PCR Master Mix; data were collected on an ABI Prism 7700 and analyzed on Sequence Detector 1.9.1. Specific gene amounts were related to 18SrRNA by comparative CT method.
# involucrin [3] = assay: Involucrin protein expression in HaCaT (flow cytometry, microscopy); type: cell-based, human; settings: 10^−8 M, 24 h, flow cytometry
# HaCaT keratinocytes [4] = assay: Forward and side scatter (cell size, granularity) of HaCaT keratinocytes; type: cell-based, human; settings: HaCaT; 20-hydroxycholecalciferol at 0.1 nM
# Description: The FL-1 signal (collected from 10,000 events in side scatter/forward scatter window after debris exclusion) was recorded. Forward (relative to cell size) and side (relative to cell granularity) scatter histograms were generated and mean signal intensity was recorded. FL-1 signal values are presented as dMFI (difference between mean fluorescence intensity of sample stained with specific and isotype control antibody). Scatter signal values are presented as MSI (mean signal intensity). Signal intensities were analyzed with Cell Quest (BD Biosciences, San Diego, Calif.) and graphical representations of the FL-1 signal were prepared with WinMdi 2.8 (shareware from Joseph Trotter, The Scripps Research Institute, San Diego, Calif.).
# CYP27B1 = assay: Real-time RT PCR CYP27B1 mRNA, normal epidermal keratinocytes; type: cell-based, human; settings: 10^−8 M, 1 h
# Description: as §1
# CYP27A1 [5] = assay: Real-time RT PCR CYP27A1 mRNA, normal epidermal keratinocytes; type: cell-based, human; settings: 10^−8 M, 24 h
# Description: as §1
# CYP24 promoter = assay: CYP24-Luc reporter in normal epidermal keratinocytes; type: cell-based, human; settings: 24 h
# Text: The CYP24-Luc construct was a generous gift from Dr Tai Cheng (Boston University Medical Campus, Core Lab Director). It was originally developed by Vaisanen et al. (27). The details of the pLuc construct have been described previously (28-29). Normal epidermal keratinocytes were transfected using Lipofectamine Plus (Invitrogen, Carlsbad, Calif.) in Epilife medium with firefly luciferase reporter gene plasmid and with phRL-TK (expresses Renilla luciferase and serves as normalization control; Promega, Madison, Wis.). After transfection, cells were incubated for 24 hours in EpiLife medium with HKGS. Cells were then transferred to fresh media containing the compounds to be tested or vehicle (ethanol) and incubated for 24 hours. The firefly luciferase and Renilla luciferase signals were recorded with a TD-20/20 luminometer (Turner Designs, Sunnyvale, Calif.); background luminescence was subtracted and the resulting promoter-specific firefly signal was divided by the Renilla signal (proportional to the number of transfected cells). The values obtained were divided by the mean of control (untreated) cells.
# rat CYP24 = target: T1, rat CYP24 (Rattus norvegicus, UniProt Q09128); assay: Metabolism by rat CYP24 in phospholipid vesicles
# T1 sequence (Q09128 36-514): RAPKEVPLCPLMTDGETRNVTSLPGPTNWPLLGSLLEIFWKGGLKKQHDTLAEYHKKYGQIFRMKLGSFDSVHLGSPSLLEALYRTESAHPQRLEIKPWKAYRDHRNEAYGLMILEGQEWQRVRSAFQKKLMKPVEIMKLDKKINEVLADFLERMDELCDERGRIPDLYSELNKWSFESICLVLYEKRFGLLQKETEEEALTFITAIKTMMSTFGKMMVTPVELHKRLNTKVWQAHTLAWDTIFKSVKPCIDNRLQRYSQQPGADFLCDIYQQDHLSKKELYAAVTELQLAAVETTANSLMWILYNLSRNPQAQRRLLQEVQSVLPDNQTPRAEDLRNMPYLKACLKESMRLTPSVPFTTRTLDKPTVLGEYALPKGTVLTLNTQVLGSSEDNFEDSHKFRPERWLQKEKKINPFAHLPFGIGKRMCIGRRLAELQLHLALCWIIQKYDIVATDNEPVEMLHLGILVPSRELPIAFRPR
# Description: Samples (typically 0.25-1.0 mL) were incubated at 37° C., with shaking, then reactions terminated by the addition of 2.5 mL ice-cold dichloromethane and vortexing. After phase separation aided by centrifugation, the lower organic phase was retained and the upper aqueous phase was extracted twice more with 2.5 mL aliquots of dichloromethane. The dichloromethane was removed under nitrogen and the residual sample dissolved in solvent for HPLC analysis.
# (§2) To test enzymatic metabolism of 20S(OH)D3 and 20R(OH)D3, the substrates were incorporated into phospholipid vesicles with the ratio of substrate to phospholipid being 0.025 mol/mol phospholipid. Vesicles were incubated with 2 μM bovine CYP11A1 or 0.06 μM human CYP27B1 for up to 10 min. To test enzymatic metabolism of 20(OH)D3 in CYP24, the substrate was incorporated into phospholipids vesicles with 0.15-0.5 μM CYP24. To test enzymatic metabolism of 20(OH)D3 in CYP27A1, purified CYP27A1 was preincubated with the vesicles for 6 min at 37° C. Adrenodoxin was added last to initiate the reaction. For kinetic experiments, the incubations were typically 0.5 mL and were carried out over the initial linear period of the reaction (10 min for vitamin D3 and cholesterol and 30 min for 20(OH)D3).
# cytochrome P450scc = target: T2, cytochrome P450scc (Bos taurus, UniProt P00189); assay: Metabolism by cytochrome P450scc in cyclodextrin; settings: substrate in 0.45% cyclodextrin
# T2 sequence (P00189 40-520): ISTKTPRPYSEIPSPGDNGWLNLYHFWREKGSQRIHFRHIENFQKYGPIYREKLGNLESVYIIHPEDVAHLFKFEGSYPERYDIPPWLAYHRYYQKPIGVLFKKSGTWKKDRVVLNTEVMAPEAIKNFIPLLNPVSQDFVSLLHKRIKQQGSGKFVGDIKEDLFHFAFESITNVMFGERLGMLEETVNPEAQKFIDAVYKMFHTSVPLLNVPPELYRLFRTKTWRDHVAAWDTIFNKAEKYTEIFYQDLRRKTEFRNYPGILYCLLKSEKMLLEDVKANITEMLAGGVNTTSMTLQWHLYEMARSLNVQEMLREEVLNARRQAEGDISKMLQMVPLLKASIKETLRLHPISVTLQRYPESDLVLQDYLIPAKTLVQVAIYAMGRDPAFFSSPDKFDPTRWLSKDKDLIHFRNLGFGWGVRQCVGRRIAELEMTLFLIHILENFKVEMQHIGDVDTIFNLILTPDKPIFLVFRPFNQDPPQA
# Description: Adrenodoxin was expressed in Escherichia coli and purified as described before (41). […] Metabolites were analysed using a Perkin Elmer HPLC equipped with a C18 column (Brownlee Aquapore, 22 cm×4.6 mm, particle size 7 μm).
# CYP27A1 [6] = target: T3, CYP27A1 (Homo sapiens, UniProt Q02318); assay: Metabolism by CYP27A1 (cyclodextrin or phospholipid vesicles); settings: cyclodextrin
# T3 sequence (Q02318 34-531): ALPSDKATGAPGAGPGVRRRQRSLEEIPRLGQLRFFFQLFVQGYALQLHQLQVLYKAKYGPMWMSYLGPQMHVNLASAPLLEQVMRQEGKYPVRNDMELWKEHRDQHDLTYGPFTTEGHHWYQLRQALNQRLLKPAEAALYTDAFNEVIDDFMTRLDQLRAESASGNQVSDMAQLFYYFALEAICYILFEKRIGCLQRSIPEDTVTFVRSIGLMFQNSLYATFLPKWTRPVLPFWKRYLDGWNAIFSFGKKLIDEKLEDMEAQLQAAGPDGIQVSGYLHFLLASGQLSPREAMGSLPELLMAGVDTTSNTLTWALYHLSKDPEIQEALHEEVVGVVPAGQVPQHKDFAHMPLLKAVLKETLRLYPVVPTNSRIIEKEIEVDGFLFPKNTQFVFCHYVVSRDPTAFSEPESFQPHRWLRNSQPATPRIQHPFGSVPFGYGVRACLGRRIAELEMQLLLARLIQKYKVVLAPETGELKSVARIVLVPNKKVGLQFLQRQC
# Description: as §2
# Kinetic characterization of the metabolism of 20(OH)D3 by CYP27A1 was carried out with substrate dissolved in either cyclodextrin or phospholipid vesicle. Vitamin D3 and 20(OH)D3 were incubated with 0.4 μM CYP27A1 and 1 μM CYP27A1, respectively, for 10 and 30 min. The products were analyzed by reverse phase HPLC. The hyperbolic curves were fitted using the equation v/[E]=(kcat—[S])/(Km+[S]) where v is reaction velocity, [E] is the CYP27A1 concentration, and [S] the substrate concentration.
smiles,measurement,setting,value
"C=C1CCC(O)CC1=CC=C1CCCC2(C)C1CCC2(O)C(C)O [17,20Rdi(OH)pD, (5Z,7E)-(20R)-9,10-secopregna-5,7,10(19)-triene-3β,17α,20-triol]",TGF-b1 induced Col1A1 mRNA,Col1A1 mRNA,reduce TGF-β1 induced Col1A1 mRNA
"C=C1CC[C@H](O)C/C1=C/C=C1\CCC[C@]2(C)[C@@H]([C@H](C)CCCC(C)(C)O)CC[C@@H]12 [25-hydroxycholecalciferol, (5Z,7E)-9,10-secocholesta-5,7,10(19)-triene-3β,25-diol, reference compound]",inhibition of colony formation,HaCaT keratinocytes [1],no significant effect
same,stimulation of involucrin mRNA,involucrin [2],~2.1 fold
same,increase in the expression of involucrin,involucrin [3],negligible
same,"forward scatter, mean signal intensity (MSI)",HaCaT keratinocytes [4],254±0.06
same,increase of CYP27B1 expression,CYP27B1,~1.3 fold
same,inhibition of CYP27A1 expression,CYP27A1 [5],~1.9 fold
same,stimulation of transcriptional activity of the CYP24 promoter,CYP24 promoter,~12 fold
same,Km,rat CYP24,0.0080±0.0016 mol substrate/mol phospholipid
same,kcat,rat CYP24; phospholipid vesicles,52.6±2.9 mol/min/mol CYP24
same,"kcat higher than that for 1,25(OH)2D3",rat CYP24; phospholipid vesicles,3.8 fold
"C=C1CC[C@H](O)C/C1=C/C=C1\CCC[C@]2(C)[C@@H]([C@H](C)CCCC(C)C)CC[C@@H]12 [cholecalciferol, (5Z,7E)-9,10-secocholesta-5,7,10(19)-triene-3β-ol, reference compound]",kcat,cytochrome P450scc,19.7±0.9 mol/min P450scc
same,kcat,CYP27A1 [6],0.0283 ± 0.00233 s⁻¹
